Laboratory results published in patent EP3549947B1, “POLYRGD PEPTIDES OBTAINED BY CHEMICAL AND BIOTECHNOLOGY METHODS WITH INJURY REDUCING AND/OR NEUROPROTECTIVE EFFECTS AND A KIT FOR THEIR ACTIVITY EVALUATION” (Uniwersytet Gdanski, priority 2018, dated 2019).
“Also recorded” adds a separate entry of the source.

What was measured:
primary neural cells = test: Multifactorial in vitro model of neurological injury (six injury factors), CellTiterBlue viability; type: cell-based, Wistar rat; details: 1-hour injury factor (glucose deprivation, acidosis pH 6.35 + 200 mM sodium lactate, 10 mM sodium azide, 400 µM glutamic acid, 800 µM NMDA or 800 µM kainic acid), then 20 hour incubation with 100 µM peptide (RGD10: 1 µg/ml)
Description: (§1) Primary neural cortical cultures were obtained from Wistar rat E18.5 embryos. To this end, pregnant rat females were anesthetized and euthanized in a CO2 chamber. In some cases, euthanasia was performed by isoflurane. The cortex tissue was excised from the isolated embryos and washed with HBSS buffer, supplemented with a mixture of penicillin and streptomycin, and HEPES. Afterwards, the cortex tissue was trypsinized for 10 minutes at 37 °C and homogenized mechanically in order to disintegrate the tissue to the form of a cell suspension. The cells were the centrifuged at 300 rcf for 4 minutes, resuspended once more in HBSS and quantified in a Bürker chamber in order to obtain a cell suspension of proper density. […]
(§2) A subject of the invention constitutes a diagnostic methodology for measuring the neuroprotective activity of peptides in a model of several factors co-occurring during any neurological injury. […] These injury conditions were optimized so that the strength of each injury factor causes a 30-40% decrease in response in a CellTiterBlue-based evaluation (a CTB fluorophore in a modified biochemical assay of the MTT type) of cellular viability, relying on quantitative analysis of mitochondrial metabolic functions. […] The fluorescence intensity of the CTB agent is measured spectrofluorimetically (560ex/590em) and is proportional to the number of living cells. […]

[1] = tested on: primary neural cortical cultures; test: Viability assay (CellTiterBlue) of primary neural cultures exposed to polyRGD peptides; type: cell-based, Wistar rat; details: reference peptide at 50 µM, 20 hour exposure
Description: as §1, §2

N=C(N)NCCC[C@H](N)C(=O)NCC(=O)N[C@@H](CC(=O)O)C(N)=O [RGD1, H2N-RGD-amide]
injury-reducing and/or neuroprotective activity (neural cell viability) (primary neural cells): significant increase in neural cell viability with regard to all injury factors; also recorded: significant injury-reducing and/or neuroprotective efficacy with respect to all six injury factors | injury-reducing and/or neuroprotective activity (neural cell viability) (primary neural cells; listed as RGD 1): broadest spectrum of activity

Tat(49-57)NH2 [TAT peptide]
cytotoxic effects (viability of neural culture) [1]: None of the analyzed peptides displayed significant cytotoxic effects in the assessed concentration ranges, as well as a reference factor
